Measured values reported in PMC4690855 (Viruses, 2015).
Values joined by “and” are separate entries in the source; they are usually repeats but may differ in a detail not shown here. Equal entries are not always repeated. “Also recorded” adds a separate entry of the source. Structures can show the parent of a compound that is named as a salt. Where two headings read alike, the source gives them in different places.

How the values were obtained:
[1] = target: T1, double mutant (I54M, L90M) HIV-2 protease (Human immunodeficiency virus type 2 subtype A, UniProt P04584, I567M/L603M); assay: In vitro enzymatic (HPLC) inhibition assay, double mutant protease; assay type: biochemical
T1 sequence (P04584 514-612 I567M/L603M): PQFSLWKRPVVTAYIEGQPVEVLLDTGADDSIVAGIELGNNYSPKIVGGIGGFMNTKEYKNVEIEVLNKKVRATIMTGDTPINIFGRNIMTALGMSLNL

[2] = test system: double mutant (I54M, L90M) HIV-2 protease; assay: as above; assay type: biochemical; conditions: for Fold Increase (Ki): Ki double mutant versus wild-type
wild-type HIV-2 protease = wild-type HIV-2 protease (Human immunodeficiency virus type 2 subtype A, UniProt P04584); assay: In vitro enzymatic (HPLC) inhibition assay, wild-type protease; assay type: biochemical
wild-type HIV-2 protease, sequence (P04584 514-612 limits assumed): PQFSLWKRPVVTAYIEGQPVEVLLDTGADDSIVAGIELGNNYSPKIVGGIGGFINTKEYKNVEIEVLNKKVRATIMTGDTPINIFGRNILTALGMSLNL

[3] = test system: HIV-2 vectors harboring the double mutation (I54M, L90M); assay: Cell culture inhibition profiling, HIV-2 vector harboring the double mutation; assay type: cell-based; conditions: for IC50: transfected 293T cells, 3 days, RT activity in medium, triplicate, mean ± SD, read-out: IC50 Double Mutant (I54M, L90M) (cell culture); for Fold Increase (IC50, cell culture): IC50 double mutant versus wild-type; for Effect of I54M-L90M double mutation on IC50 in cell culture, in words: double mutant versus wild-type vector
wild-type HIV-2 vectors = assay: Cell culture inhibition profiling, wild-type HIV-2 vector; assay type: cell-based; conditions: transfected 293T cells, 3 days, RT activity in medium, triplicate, mean ± SD
[4] = HPLC, oligopeptide substrate, pH 5.6, 37 °C 1 h, triplicate, mean ± SD, read-out: IC50 Wild-Type
[5] = calculated from IC50 by Ki = (IC50 − E/2)/(S/Km + 1), mean ± SD, read-out: Ki Wild-Type
[6] = Human immunodeficiency virus 2, HEK-293T, 72 h

## Cc1cccc(C)c1OCC(=O)N[C@@H](Cc1ccccc1)[C@@H](O)C[C@H](Cc1ccccc1)NC(=O)[C@H](C(C)C)N1CCCNC1=O [Lopinavir]
[1]
  IC50: 2.32 ± 0.1 nM
[2]
  Fold Increase (Ki): 10.6 fold
[2]; listed as lopinavir
  Fold Increase (Ki): more than 10 fold
wild-type HIV-2 protease; [4]
  IC50: 1.18 ± 0.1 nM
wild-type HIV-2 protease; [5]
  Ki: 0.03 ± 0.001 nM
[3]; [6]
  IC50: 3100 ± 1100 nM
[3]
  Fold Increase (IC50, cell culture): 20.6 fold
[3]; listed as lopinavir
  Fold Increase (IC50, cell culture): > 20 fold

## CC(C)c1nc(CN(C)C(=O)N[C@H](C(=O)N[C@@H](Cc2ccccc2)C[C@H](O)[C@H](Cc2ccccc2)NC(=O)OCc2cncs2)C(C)C)cs1 [Ritonavir]
[3]; [6]
  IC50: 14500 ± 300 nM

## CC(C)(C)NC(=O)[C@@H]1C[C@@H]2CCCC[C@@H]2CN1C[C@@H](O)[C@H](Cc1ccccc1)NC(=O)[C@H](CC(N)=O)NC(=O)c1ccc2ccccc2n1 [Saquinavir]
[1]
  IC50: 14.1 ± 1.7 nM
[2]
  Fold Increase (Ki): 21.4 fold
[2]; listed as saquinavir
  Fold Increase (Ki): > 20 fold
wild-type HIV-2 protease; [4]
  IC50: 3.42 ± 0.1 nM
wild-type HIV-2 protease; [5]
  Ki: 0.09 ± 0.001 nM
[3]; [6]
  IC50: 3500 ± 1200 nM
[3]
  Fold Increase (IC50, cell culture): 2.7 fold
  Effect of I54M-L90M double mutation on IC50 in cell culture, in words: significant IC50 increase

## CC(C)(C)NC(=O)[C@@H]1CN(Cc2cccnc2)CCN1C[C@@H](O)C[C@@H](Cc1ccccc1)C(=O)N[C@H]1c2ccccc2C[C@H]1O [Indinavir sulfate, indinavir sulfate]
[2]
  Fold Increase (Ki): more than 10 fold
wild-type HIV-2 protease; [5]
  Ki: 0.03 nM
[3]; [6]
  IC50: 16500 ± 2100 nM
[3]
  Fold Increase (IC50, cell culture): 11.7 fold
[3]; listed as indinavir sulfate
  Fold Increase (IC50, cell culture): > 10 fold

## COC(=O)N[C@H](C(=O)N[C@@H](Cc1ccccc1)[C@@H](O)CN(Cc1ccc(-c2ccccn2)cc1)NC(=O)[C@@H](NC(=O)OC)C(C)(C)C)C(C)(C)C.O=S(=O)(O)O [Atazanavir sulfate, atazanavir sulfate]
[2]
  Fold Increase (Ki): more than 10 fold
wild-type HIV-2 vectors
  IC50: 5900 ± 500 nM
wild-type HIV-2 protease; wild-type protease, read-out: Ki Wild-Type (as printed in text in μM)
  Ki: 0.09 ± 0.03 nM
[3]
  Fold Increase (IC50, cell culture): 4.8 fold
  Effect of I54M-L90M double mutation on IC50 in cell culture, in words: significant IC50 increase
  IC50: 28600 ± 350 nM

## COC(=O)N[C@H](C(=O)N[C@@H](Cc1ccccc1)[C@@H](O)CN(Cc1ccc(-c2ccccn2)cc1)NC(=O)[C@@H](NC(=O)OC)C(C)(C)C)C(C)(C)C [Atazanavir]
[1]
  IC50: 10.9 ± 0.2 nM
[2]
  Fold Increase (Ki): 16.6 fold
wild-type HIV-2 protease; [4]
  IC50: 3.34 ± 1 nM
wild-type HIV-2 protease; [5]
  Ki: 0.09 ± 0.03 nM

## CCC[C@@]1(CCc2ccccc2)CC(O)=C([C@H](CC)c2cccc(NS(=O)(=O)c3ccc(C(F)(F)F)cn3)c2)C(=O)O1 [Tipranavir]
[1]
  IC50: 4.8 ± 1.6 nM
[2]
  Fold Increase (Ki): 0.5 fold
[2]; double mutant versus wild-type protease
  Effect of I54M, L90M double mutation on inhibitor efficacy (enzymatic), in words: remained indifferent to the mutations; also recorded: did not observe a significant increase in Ki
wild-type HIV-2 protease; [4]
  IC50: 50 ± 2 nM
wild-type HIV-2 protease; [5]
  Ki: 1.3 nM and 1.31 nM
[3]; [6]
  IC50: 5800 ± 1700 nM
[3]
  Fold Increase (IC50, cell culture): 1.5 fold
  Effect of I54M-L90M double mutation on IC50 in cell culture, in words: did not have an effect

## CC(C)CN(C[C@@H](O)[C@H](Cc1ccccc1)NC(=O)O[C@H]1CCOC1)S(=O)(=O)c1ccc(N)cc1 [Amprenavir]
[1]
  IC50: 152 ± 9 nM
[3]; [6]
  IC50: > 100000 nM

## CC(C)(C)NC(=O)[C@@H]1CN(Cc2cccnc2)CCN1C[C@@H](O)C[C@@H](Cc1ccccc1)C(=O)N[C@H]1c2ccccc2C[C@H]1O [Indinavir]
[1]
  IC50: 2.6 ± 1.4 nM
[2]
  Fold Increase (Ki): 12 fold
wild-type HIV-2 protease; [4]
  IC50: 1.3 ± 0.5 nM

## CC(C)CN(C[C@@H](O)[C@H](Cc1ccccc1)NC(=O)O[C@H]1CO[C@H]2OCC[C@H]21)S(=O)(=O)c1ccc(N)cc1 [Darunavir]
[1]
  IC50: 8.14 ± 1.3 nM
[2]
  Fold Increase (Ki): 22.2 fold
[2]; listed as darunavir
  Fold Increase (Ki): > 20 fold
wild-type HIV-2 protease
  IC50: 1.76 ± 0.1 nM
wild-type HIV-2 protease; Ki Wild-Type, calculated from IC50 by Ki = (IC50 − E/2)/(S/Km + 1), mean ± SD
  Ki: 0.05 ± 0.005 nM
[3]; [6]
  IC50: 18700 ± 1600 nM
[3]
  Fold Increase (IC50, cell culture): 44.5 fold
[3]; listed as darunavir
  Fold Increase (IC50, cell culture): > 40 fold

## Cc1c(O)cccc1C(=O)N[C@@H](CSc1ccccc1)[C@H](O)CN1C[C@H]2CCCC[C@H]2C[C@H]1C(=O)NC(C)(C)C [Nelfinavir]
[1]
  IC50: 190 ± 14.5 nM
[2]
  Fold Increase (Ki): 26 fold
[2]; listed as nelfinavir
  Fold Increase (Ki): > 20 fold
wild-type HIV-2 protease; [4]
  IC50: 38 ± 10 nM
wild-type HIV-2 protease; [5]
  Ki: 1 nM and 1.01 nM
[3]; [6]
  IC50: 5100 ± 1700 nM
[3]
  Fold Increase (IC50, cell culture): 1.8 fold
  Effect of I54M-L90M double mutation on IC50 in cell culture, in words: significant IC50 increase
